Experimental data reported in patent US20260174717A1 (Sumitomo Pharma America, Inc., priority 2022, published 2026).
Marks after values point to notes of the source that are not given here.

Legend:
Male Swiss mice [1] = test: mouse marble burying test; format: in vivo; details: 8 mg/kg, ip; positive control; 30 min before 30 min test
Method: (§1) Thirty minutes later mice were individually placed in transparent plastic cages with 5 cm of sawdust on the floor and 25 marbles grouped in the center of the cage. The number of marbles covered by sawdust (2/3rd or more covered) was counted at the end of the 30 min test. Two days later, general locomotor activity was assessed in the activity meter test in the same animals. Mice were placed in an automated activity meter apparatus 30 minutes after dosing and the number of crossings recorded in 5-minute time bins for 30 minutes. Chlorpromazine (4 mg/kg, i.p.) was included as a positive assay control. […] Locomotor activity was analyzed by one-way ANOVA followed by Dunnett's post-hoc analysis. Effects of clobazam in the marble burying and activity meter tests were examined with the Mann-Whitney U test and unpaired student's t-test, respectively.

Male Swiss mice [2] = test: mouse activity meter test (general locomotor activity); format: in vivo; details: 4 mg/kg, ip; positive assay control; 30 minutes after dosing, recorded for 30 minutes
Method: as §1

Question: With `CN1C(=O)CC(=O)N(c2ccccc2)c2cc(Cl)ccc21` [Clobazam, clobazam] as the compound, how does the “Number of marbles buried (Mean ± SEM)” value (Male Swiss mice [1]) read?
Answer: 0.5 ± 0.3^a

Question: With `CN(C)CCCN1c2ccccc2Sc2ccc(Cl)cc21` [Chlorpromazine] as the compound, how does the “Number of crossings (Mean ± SEM)” value (Male Swiss mice [2]) read?
Answer: 3.6 ± 0.7^a
